Paper PMC10536189 (Microorganisms, 2023)

Tested on: M. tuberculosis
Assay type: cell-based, Mycobacterium tuberculosis (laboratory strain H37Rv)
Settings: peptide 10 µg/mL; for Time to Positivity (Days.Hours) Experiment 2a / Time to Positivity (Days.Hours) Experiment 2b / Time to Positivity (Days.Hours) Experiment 1a / Time to Positivity (Days.Hours) Experiment 1b / Effect on TTP of MTB in words: MGIT; for Time to Positivity (Days.Hours) Experiment 2a / Time to Positivity (Days.Hours) Experiment 2b: diluted inoculum; for Time to Positivity (Days.Hours) Experiment 2a: technical repeat 2a, TB control (no peptide) 15.01; for Time to Positivity (Days.Hours) Experiment 2b: technical repeat 2b, TB control (no peptide) 15.20; for Time to Positivity (Days.Hours) Experiment 1a / Time to Positivity (Days.Hours) Experiment 1b: less diluted inoculum; for Time to Positivity (Days.Hours) Experiment 1a: technical repeat 1a, TB control (no peptide) 7.02; for Time to Positivity (Days.Hours) Experiment 1b: technical repeat 1b, TB control (no peptide) 7.01; for Average % Faster than Control: overall average of the averages of experiments 1a/1b and 2a/2b, negative = slower

| Substance | Time to Positivity (Days.Hours) Experiment 2a [Days.Hours] | Time to Positivity (Days.Hours) Experiment 2b [Days.Hours] | Time to Positivity (Days.Hours) Experiment 1a [Days.Hours] | Time to Positivity (Days.Hours) Experiment 1b [Days.Hours] | Average % Faster than Control [%] | Effect on TTP of MTB in words |
| --- | --- | --- | --- | --- | --- | --- |
| 3: peptide from the authors' library (WKWRVRVTI) [Peptide 3] | 14.22 | 15.02 | 6.08 | 6.17 | 4.0 | – |
| 5: peptide from the authors' library; same sequence as P8/Designed * (FFIYVWRRR) [Peptide 5] | 14.06 | 14.16 | 5.21 | 6.08 | 8.8 | – |
| 9: peptide from the authors' library; same sequence as P9/Designed (KRRWRIWLV) [Peptide 9] | 15.08 | 14.21 | 6.07 | 6.04 | 5.8 | – |
| 12: peptide from the authors' library (RRRIKIRWY) [Peptide 12] | 14.08 | 14.22 | 6.14 | 5.20 | 10.2 | strong hormetic response |
| 16: peptide from the authors' library (RLKRWWKFL) [Peptide 16] | 14.17 | 14.20 | 6.01 | 5.22 | 8.6 | – |
| 20: peptide from the authors' library (KWKWWWRKI) [Peptide 20] | 14.01 | 14.16 | 6.11 | 6.00 | 8.3 | – |
| 22: peptide from the authors' library (IRMRIRVLL) [Peptide 22] | 15.19 | 15.10 | 6.00 | 6.07 | 4.7 | – |
| 29: peptide from the authors' library (RWRWWWRVY) [Peptide 29] | 15.12 | 15.01 | 6.13 | 6.00 | 4.9 | – |
| 49: peptide from the authors' library (VRLRIRVRVIRK) [Peptide 49] | 15.12 | 15.02 | 5.22 | 6.06 | 6.2 | – |
| 59: peptide from the authors' library (ILKWKRKWWKWRR) [Peptide 59] | 13.19 | 12.22 | 5.17 | 5.22 | 14.5 | – |
| 60: peptide from the authors' library (ILKWKIFKWKWFR) [Peptide 60] | 14.19 | 14.16 | 6.03 | 6.02 | 7.9 | – |
| 61: peptide from the authors' library (ILKWKTKWWKWFR) [Peptide 61] | 13.11 | 14.21 | 6.20 | 5.23 | 10.4 | – |
| 62: peptide from the authors' library (ILKWKMFKWKWFR) [Peptide 62] | 16.20 | 17.16 | 6.07 | 7.02 | −3.4 | delayed TTP |
| 63: peptide from the authors' library; same sequence as Indolicidin/Cow (ILPWKWPWWPWRR) [Peptide 63] | 17.01 | 17.10 | 6.22 | 6.22 | −5.5 | delayed TTP |
| 64: peptide from the authors' library (RLARIVVIRVAR) [Peptide 64] | 15.21 | 16.13 | 6.19 | 6.16 | −1.4 | – |
| 65: peptide from the authors' library (RGARIVVIRVAR) [Peptide 65] | 16.11 | 16.01 | 6.16 | 6.03 | 0.8 | – |
| 66: peptide from the authors' library (RRARIVVIRVAR) [Peptide 66] | 17.06 | 17.16 | 6.05 | 6.16 | −3.5 | – |
| 67: peptide from the authors' library (RLWRIVVIRVAR) [Peptide 67] | 16.00 | 16.05 | 6.19 | 6.11 | −0.4 | – |
| 68: peptide from the authors' library (RLRRIVVIRVAR) [Peptide 68] | 15.00 | 15.23 | 6.09 | 6.17 | 2.3 | – |
| 71: peptide from the authors' library (RLWRIVVIRVKR) [Peptide 71] | 14.01 | 14.02 | 6.04 | 6.06 | 9.4 | – |
